{
  "source": "ChEMBL document CHEMBL1140557",
  "about": "“SAR studies of 1,5-diarylpyrazole-based CCK1 receptor antagonists” (Bioorg Med Chem Lett, 2007)",
  "key": {"[1]": {"test": "Oral bioavailability in rat at 2 umol/kg", "assay_type": "ADME, organism-based", "conditions": "in vivo"}, "[2]": {"test": "Half life in rat", "assay_type": "ADME, organism-based", "conditions": "in vivo"}},
  "data": [
    {"smiles": "COc1ccc(-n2nc(C[C@H](C(=O)O)c3cccc(C)c3)cc2-c2ccc(Cl)c(Cl)c2)cc1", "values": [
      {"measurement": "bioavailability", "setting": "[1]", "result": 100, "unit": "%"},
      {"measurement": "half-life", "setting": "[2]", "result": 5.6, "unit": "h"}
    ]}
  ]
}
